Measurements reported in PubChem BioAssay AID330 (DTP/NCI, 2004).
Several values for one entry are separate records, joined by “and”; a condition that tells them apart may be missing. Equal values may be shown once. Toxic doses and inconclusive results are not listed.

Test system: P388 leukemia ip, CD2F1 mice, survival T/C
Test: NCI In Vivo Anticancer Drug Screen. Data for tumor model P388 Leukemia (intraperitoneal) in CD2F1 (CDF1) mice
Conditions: endpoint: median survival time, higher = longer survival
Procedure, shortened: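 Mice carrying the transplanted tumor received test compound or vehicle. Survival was recorded in each group, and the value is the treated-group measurement divided by that of the vehicle-treated control group.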

[1] = dose: 25.0 mg/kg/injection, schedule: Q04DX002 (ip), vehicle: saline with Tween-80
[2] = dose: 50.0 mg/kg/injection, schedule: Q04DX002 (ip), vehicle: saline with Tween-80
[3] = dose: 100.0 mg/kg/injection, schedule: Q04DX002 (ip), vehicle: saline with Tween-80
[4] = dose: 50.0 mg/kg/injection, schedule: Q01DX005 (ip), vehicle: saline with Tween-80
[5] = dose: 100.0 mg/kg/injection, schedule: Q01DX005 (ip), vehicle: saline with Tween-80
[6] = dose: 200.0 mg/kg/injection, schedule: Q01DX005 (ip), vehicle: saline with Tween-80
[7] = dose: 100.0 mg/kg/injection, schedule: Q01DX001 (ip), vehicle: Klucel (hydroxypropylcellulose) (HPC)
[8] = dose: 200.0 mg/kg/injection, schedule: Q01DX001 (ip), vehicle: Klucel (hydroxypropylcellulose) (HPC)
[9] = dose: 100.0 mg/kg/injection, schedule: Q04DX003 (ip), vehicle: Klucel (hydroxypropylcellulose) (HPC)
[10] = dose: 200.0 mg/kg/injection, schedule: Q04DX003 (ip), vehicle: Klucel (hydroxypropylcellulose) (HPC)
[11] = dose: 400.0 mg/kg/injection, schedule: Q04DX003 (ip), vehicle: Klucel (hydroxypropylcellulose) (HPC)
[12] = dose: 12.5 mg/kg/injection, schedule: Q01DX009 (ip), vehicle: saline with Tween-80
[13] = dose: 25.0 mg/kg/injection, schedule: Q01DX009 (ip), vehicle: saline with Tween-80
[14] = dose: 50.0 mg/kg/injection, schedule: Q01DX009 (ip), vehicle: saline with Tween-80
[15] = dose: 25.0 mg/kg/injection, schedule: Q01DX009 (ip), vehicle: distilled water + Tween-80
[16] = dose: 50.0 mg/kg/injection, schedule: Q01DX009 (ip), vehicle: distilled water + Tween-80
[17] = dose: 100.0 mg/kg/injection, schedule: Q01DX009 (ip), vehicle: distilled water + Tween-80

CNC1C(O)C(OC2C(N)CC(N)C(OC3OC(C(C)O)C(O)C(O)C3N)C2O)OCC1(C)O (stereo not given)
T/C (dose: 7.5 mg/kg/injection, schedule: Q01DX005 (ip), vehicle: saline): 108 % of control
T/C (dose: 15.0 mg/kg/injection, schedule: Q01DX005 (ip), vehicle: saline): 107 % of control
T/C (dose: 30.0 mg/kg/injection, schedule: Q01DX005 (ip), vehicle: saline): 101 % of control

COc1ccc2c(c1)C1(C)CCCC(C)(COC(C)=O)C1CC2 (stereo not given)
T/C (dose: 7.5 mg/kg/injection, schedule: Q01DX009 (ip), vehicle: saline with Tween-80): 91 % of control
T/C (dose: 15.0 mg/kg/injection, schedule: Q01DX009 (ip), vehicle: saline with Tween-80): 91 % of control
T/C (dose: 30.0 mg/kg/injection, schedule: Q01DX009 (ip), vehicle: saline with Tween-80): 89 % of control

CN=C(N)N/N=C(\C)c1ccc2c(c1)Cc1cccc(Br)c1-2
T/C [1]: 111 % of control
T/C [2]: 109 % of control
T/C [3]: 109 % of control

O=C(Nc1ccccn1)c1ccccc1S(=O)(=O)O
T/C [4]: 102 % of control
T/C [5]: 104 % of control
T/C [6]: 99 % of control

Cc1ccc(S(=O)(=O)NCC(CNS(=O)(=O)c2ccc(C)cc2)C(C)(C)C)cc1
T/C [7]: 93 % of control
T/C [8]: 93 % of control

C=CC(c1ccccc1)c1cc2c(cc1OC)OCO2 (stereo not given)
T/C [4]: 105 % of control
T/C [5]: 96 % of control
T/C [6]: 100 % of control

CC(C)NCC(O)COc1c2ccccc2nc2ccccc12 (stereo not given)
T/C [4]: 101 % of control
T/C [5]: 95 % of control
T/C [6]: 102 % of control

Cc1c(/C=C/c2oc3ccc(C(=N)N)cc3c2C)oc2ccc(C(=N)N)cc12
T/C (dose: 100.0 mg/kg/injection, schedule: Q04DX002 (ip), vehicle: saline): 124 % of control

CCOP(O)(=S)OCC
T/C (dose: 12.5 mg/kg/injection, schedule: Q01DX001 (ip), vehicle: saline): 94 % of control
T/C (dose: 25.0 mg/kg/injection, schedule: Q01DX001 (ip), vehicle: saline): 100 % of control
T/C [7]: 89 % of control
T/C (dose: 100.0 mg/kg/injection, schedule: Q01DX001 (ip), vehicle: saline): 103 % of control
T/C [9]: 92 % of control
T/C (dose: 100.0 mg/kg/injection, schedule: Q04DX003 (ip), vehicle: saline): 88 % of control
T/C [8]: 108 % of control
T/C (dose: 200.0 mg/kg/injection, schedule: Q01DX001 (ip), vehicle: saline): 98 % of control and 106 % of control
T/C [10]: 89 % of control
T/C (dose: 200.0 mg/kg/injection, schedule: Q04DX003 (ip), vehicle: saline): 90 % of control
T/C (dose: 400.0 mg/kg/injection, schedule: Q01DX001 (ip), vehicle: Klucel (hydroxypropylcellulose) (HPC)): 92 % of control
T/C (dose: 400.0 mg/kg/injection, schedule: Q01DX001 (ip), vehicle: saline): 108 % of control and 106 % of control
T/C [11]: 90 % of control
T/C (dose: 400.0 mg/kg/injection, schedule: Q04DX003 (ip), vehicle: saline): 101 % of control

CC1=C(O)NC(CC(=O)C(O)CO)=CN1 (stereo not given)
T/C (dose: 25.0 mg/kg/injection, schedule: Q01DX009 (ip), vehicle: water): 101 % of control
T/C (dose: 50.0 mg/kg/injection, schedule: Q01DX009 (ip), vehicle: water): 100 % of control
T/C (dose: 100.0 mg/kg/injection, schedule: Q01DX009 (ip), vehicle: water): 95 % of control
T/C (dose: 200.0 mg/kg/injection, schedule: Q01DX009 (ip), vehicle: water): 95 % of control
T/C (dose: 400.0 mg/kg/injection, schedule: Q01DX009 (ip), vehicle: water): 111 % of control
T/C (dose: 800.0 mg/kg/injection, schedule: Q01DX009 (ip), vehicle: water): 117 % of control

O=C([Se][Se]C(=O)c1ccc(Cl)cc1)c1ccc(Cl)cc1
T/C [12]: 99 % of control
T/C [13]: 100 % of control
T/C [14]: 100 % of control
T/C (dose: 100.0 mg/kg/injection, schedule: Q01DX009 (ip), vehicle: saline with Tween-80): 98 % of control

O=c1ccc(OS(=O)(=O)c2ccccc2)n[nH]1
T/C (dose: 60.0 mg/kg/injection, schedule: Q01DX005 (ip), vehicle: Klucel (hydroxypropylcellulose) (HPC)): 92 % of control
T/C (dose: 120.0 mg/kg/injection, schedule: Q01DX005 (ip), vehicle: Klucel (hydroxypropylcellulose) (HPC)): 90 % of control

Nc1nc(N)c(SC(F)(F)F)c(Cl)n1
T/C (dose: 60.0 mg/kg/injection, schedule: Q01DX005 (ip), vehicle: saline with Tween-80): 100 % of control
T/C (dose: 120.0 mg/kg/injection, schedule: Q01DX005 (ip), vehicle: saline with Tween-80): 103 % of control

COc1cccc2c1C(=O)c1c(O)c3c(c(O)c1C2=O)CC(O)(C(C)=O)CC3OC1CC(NCC2(O)OCC(O)C(O)C2O)C(O)C(C)O1 (stereo not given)
T/C (dose: 3.13 mg/kg/injection, schedule: Q04DX003 (ip), vehicle: water): 119 % of control
T/C (dose: 6.25 mg/kg/injection, schedule: Q04DX003 (ip), vehicle: water): 117 % of control
T/C (dose: 12.5 mg/kg/injection, schedule: Q04DX003 (ip), vehicle: water): 119 % of control
T/C (dose: 25.0 mg/kg/injection, schedule: Q04DX003 (ip), vehicle: water): 118 % of control
T/C (dose: 200.0 mg/kg/injection, schedule: Q04DX003 (ip), vehicle: water): 99 % of control

Cc1cc(O)c2c(c1O)C(=O)C13C(=C2O)C(=O)C2C(O)C1C1C(O)C3C(=O)C3=C(O)c4c(O)cc(C)c(O)c4C(=O)C321 (stereo not given)
T/C (dose: 0.75 mg/kg/injection, schedule: Q01DX005 (ip), vehicle: saline with Tween-80): 100 % of control and 106 % of control
T/C (dose: 0.78 mg/kg/injection, schedule: Q01DX009 (ip), vehicle: saline with Tween-80): 116 % of control
T/C (dose: 1.5 mg/kg/injection, schedule: Q01DX005 (ip), vehicle: saline with Tween-80): 111 % of control and 115 % of control
T/C (dose: 3.0 mg/kg/injection, schedule: Q01DX005 (ip), vehicle: saline with Tween-80): 115 % of control

Cc1cc(=O)n2c3c(c4c(cc13)c(CN(C)C)cc(=O)n4C)OC2
T/C [12]: 111 % of control
T/C [13]: 152 % of control
T/C [14]: 102 % of control and 118 % of control

O=S1(c2ccccc2)=NP(N2CC2)(N2CC2)=NP(N2CC2)(N2CC2)=N1 (stereo not given)
T/C (dose: 18.75 mg/kg/injection, schedule: Q04DX003 (ip), vehicle: saline): 99 % of control
T/C (dose: 37.5 mg/kg/injection, schedule: Q04DX003 (ip), vehicle: saline): 93 % of control
T/C (dose: 75.0 mg/kg/injection, schedule: Q04DX003 (ip), vehicle: saline): 120 % of control

CNC(=O)OCc1c(C)oc(-c2ccc(Cl)c(Cl)c2)c1COC(=O)NC
T/C [15]: 102 % of control
T/C [16]: 97 % of control
T/C [17]: 97 % of control
T/C (dose: 200.0 mg/kg/injection, schedule: Q01DX009 (ip), vehicle: distilled water + Tween-80): 91 % of control
T/C (dose: 400.0 mg/kg/injection, schedule: Q01DX009 (ip), vehicle: distilled water + Tween-80): 90 % of control

CC(=O)n1c2ccccc2c2c(C)c3cnccc3c(C)c21
T/C (dose: 12.5 mg/kg/injection, schedule: Q04DX002 (ip), vehicle: saline with Tween-80): 114 % of control
T/C [1]: 124 % of control
T/C [2]: 152 % of control
T/C [3]: 171 % of control
T/C (dose: 200.0 mg/kg/injection, schedule: Q04DX002 (ip), vehicle: saline with Tween-80): 196 % of control

CC1CC(C)(C)C(c2ccccc2)C(=O)O1 (stereo not given)
T/C [9]: 106 % of control
T/C [10]: 100 % of control
T/C [11]: 114 % of control

Cc1ccc(C(C)C)c(OCCN)c1
T/C (dose: 6.25 mg/kg/injection, schedule: Q01DX009 (ip), vehicle: saline): 112 % of control
T/C (dose: 12.5 mg/kg/injection, schedule: Q01DX009 (ip), vehicle: saline): 110 % of control
T/C (dose: 25.0 mg/kg/injection, schedule: Q01DX009 (ip), vehicle: saline): 107 % of control
T/C (dose: 50.0 mg/kg/injection, schedule: Q01DX009 (ip), vehicle: saline): 94 % of control

CCN=NNc1ccc(C(C)=O)cc1
T/C (dose: 12.5 mg/kg/injection, schedule: Q01DX009 (ip), vehicle: distilled water + Tween-80): 95 % of control
T/C [15]: 109 % of control and 90 % of control
T/C [16]: 109 % of control and 92 % of control
T/C [17]: 104 % of control
